In article PMC3590142 (PLoS ONE, 2013):

T1: RFT-1 (rft-1, Y47D7A.16) (Caenorhabditis elegans, UniProt Q3LFN0)
T1 construct: full-length 1,284 nt cDNA with corrected 3' end (differs from the older gene model) in pCI-neo; untagged; transient expression in human ARPE-19 cells; 11 predicted TM domains
T1 sequence (Q3LFN0 1-427): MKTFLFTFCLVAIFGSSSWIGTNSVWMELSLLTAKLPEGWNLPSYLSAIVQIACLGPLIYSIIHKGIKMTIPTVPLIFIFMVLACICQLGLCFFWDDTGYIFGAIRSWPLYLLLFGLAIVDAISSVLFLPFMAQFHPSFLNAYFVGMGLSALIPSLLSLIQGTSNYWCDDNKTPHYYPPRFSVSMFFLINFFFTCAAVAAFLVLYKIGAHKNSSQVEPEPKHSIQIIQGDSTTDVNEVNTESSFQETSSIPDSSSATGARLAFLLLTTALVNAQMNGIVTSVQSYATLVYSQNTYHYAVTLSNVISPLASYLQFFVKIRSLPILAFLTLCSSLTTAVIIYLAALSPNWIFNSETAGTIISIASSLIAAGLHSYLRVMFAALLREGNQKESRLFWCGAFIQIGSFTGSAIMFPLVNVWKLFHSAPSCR

T2: RFT-2 (rft-2, Y47D7A.14) (Caenorhabditis elegans, UniProt G4SDH4)
T2 construct: full-length cDNA in pCI-neo; untagged; transient expression in human ARPE-19 cells
T2 sequence (G4SDH4 1-476): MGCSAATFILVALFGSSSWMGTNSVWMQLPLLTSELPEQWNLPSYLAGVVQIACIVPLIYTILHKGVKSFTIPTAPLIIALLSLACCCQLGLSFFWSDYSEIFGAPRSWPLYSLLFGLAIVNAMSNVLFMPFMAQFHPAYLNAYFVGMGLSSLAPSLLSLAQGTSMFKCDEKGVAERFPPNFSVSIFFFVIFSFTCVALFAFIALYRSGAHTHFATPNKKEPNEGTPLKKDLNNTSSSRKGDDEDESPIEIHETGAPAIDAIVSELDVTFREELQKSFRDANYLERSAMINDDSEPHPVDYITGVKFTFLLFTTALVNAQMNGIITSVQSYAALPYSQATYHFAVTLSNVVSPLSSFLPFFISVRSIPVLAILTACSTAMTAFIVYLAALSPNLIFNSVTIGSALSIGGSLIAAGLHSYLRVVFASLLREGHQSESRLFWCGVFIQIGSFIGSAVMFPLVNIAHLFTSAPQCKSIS

B1: RFT-1 (rft-1, Y47D7A.16) (Caenorhabditis elegans) (protein)
chain: MKTFLFTFCLVAIFGSSSWIGTNSVWMELSLLTAKLPEGWNLPSYLSAIVQIACLGPLIYSIIHKGIKMTIPTVPLIFIFMVLACICQLGLCFFWDDTGYIFGAIRSWPLYLLLFGLAIVDAISSVLFLPFMAQFHPSFLNAYFVGMGLSALIPSLLSLIQGTSNYWCDDNKTPHYYPPRFSVSMFFLINFFFTCAAVAAFLVLYKIGAHKNSSQVEPEPKHSIQIIQGDSTTDVNEVNTESSFQETSSIPDSSSATGARLAFLLLTTALVNAQMNGIVTSVQSYATLVYSQNTYHYAVTLSNVISPLASYLQFFVKIRSLPILAFLTLCSSLTTAVIIYLAALSPNWIFNSETAGTIISIASSLIAAGLHSYLRVMFAALLREGNQKESRLFWCGAFIQIGSFTGSAIMFPLVNVWKLFHSAPSCR

Legend:
RFT-1 (rft-1, Y47D7A.16) = target: T1, RFT-1 (rft-1, Y47D7A.16); assay: inhibition of [3H]riboflavin uptake, transfected ARPE-19 cells, empty-vector uptake subtracted; type: cell-based; conditions: competition with [3H]riboflavin; 37°C, 5 min, Krebs-Ringer buffer
RFT-2 (rft-2, Y47D7A.14) = target: T2, RFT-2 (rft-2, Y47D7A.14); assay: [3H]riboflavin uptake, transfected ARPE-19 cells, empty-vector uptake subtracted; conditions: 14 nM [3H]riboflavin, pH 5.5, 37°C, 5 min, Krebs-Ringer buffer; labelled compound
[1] = substrate: Cc1cc2nc3c(=O)[nH]c(=O)nc-3n(C[C@H](O)[C@H](O)[C@H](O)CO)c2cc1C; assay: cells, lysate or membranes; conditions: 0.01–10 µM riboflavin, 37°C, 5 min, Krebs-Ringer buffer, labelled compound

Molecule | inhibition of [3H]riboflavin uptake, transfected ARPE-19 cells, empty-vector upt (RFT-1 (rft-1, Y47D7A.16)) | other results
Cc1cc2nc3[nH]c(=O)[nH]c(=O)c3nc2cc1C [lumichrome] | structural analogues lumichrome and lumiflavin significantly inhibited [^3H] riboflavin uptake | 
Cc1cc2nc3c(=O)[nH]c(=O)nc-3n(C[C@H](O)[C@H](O)[C@H](O)CO)c2cc1C [riboflavin] |  | [3H]riboflavin uptake, transfected ARPE-19 cells, empty-vector uptake subtracted (RFT-2 (rft-2, Y47D7A.14)): rft-2 transfected cells also had significantly higher riboflavin uptake compared to controls
Cc1cc2nc3c(=O)[nH]c(=O)nc-3n(C)c2cc1C [lumiflavin] | structural analogues lumichrome and lumiflavin significantly inhibited [^3H] riboflavin uptake | 
B1 |  | Km [1]: 1.4 ± 0.5 µM
